Each block holds one compound with its values, some of them ahead of it. Square brackets hold non-standard residues; d marks the D form. Ends that are not written are not given here.
Columns and labels:
[1] = rat
[2] = rat, in vivo, inhaled or intranasal
[3] = Preliminary toxicology studies
[4] = test system: neuroblastoma cell; details: buthionine sulfoximine induced; cited from earlier work
[5] = test system: C57-B16J mice; test: Morris water maze in male offspring after prenatal treatment of pregnant mice; format: in vivo, mouse; details: vs vehicle; for Latency to find the hidden platform, prenatal oral single peptide 40 μg: gavage on pregnancy day 8, 40 μg
Protocol: C57-B16J female mice (Jackson Labs) were kept under a 12 h light, 12 h dark regimen with food and water available at all times. The mice received humane animal care in compliance with the “Guideline for Care and Use of Experimental Animals.” Six week old females (21-24 grams) were mated with C57-B16J males for 4 h. The presence of a vaginal plug was considered day 0 pregnancy.
Animals were injected intraperitoneally on pregnancy day 8, or treated on pregnancy day 8 after 1 hour fast with gavage dose of ADNF polypeptides. NAP was diluted in 50 μl DMSO and diluted in filtered Dulbecco 's phosphate buffered saline (DPBS). SAL was dissolved and diluted in filtered DPBS. Control animals were treated with a vehicle (i.e., DPBS). All treatments were coded.
Delivery occurred on day 20, weaning on day 20 of life. Male offspring were eartagged with all identifying markers of coded treatments removed.
Only male mice were used for the water maze trials. Testing of mice began at 35-50 days, typically on day 38, twice daily (two trials) for 7 days.
Morris water maze test used is adapted from “repeated acquisition of a spatial navigation task in mice: Effects of spacing of trials and of unilateral middle cerebral artery occlusion” Klapdor & Van der Staay, Physiology & Behav. 63(5):903-909 (1998). A trial consists of attempting to find the hidden platform from 4 set points. Specifically, testing of mice began in the mornings, typically between 9 and 9:30. Consistent timing is important to any behavioral study. Testing of mice was performed in a random order to prevent chronological bias by the researcher. Maze was set up the day before, to allow water time to adjust to room temperature. 100-150 ml of non-toxic white tempura is added and mixed. […]
On days 2-7, mice are only given 15 seconds on the platform before the initial trial. […] The daily average escape latency is calculated and plotted along the 7 day period for test administration. […]

[6] = Biodistribution and intactness of [3H]-NAP following intranasal administration
[7] = test system: apolipoprotein E-deficient mice; details: injection to newborn mice, short-term memory in three-week-old pups; cited from earlier work
[8] = test system: AF64A-treated rats; test: Water maze (two daily tests, hidden platform) in AF64A cholinotoxicity rats, intranasal peptide; format: in vivo, rat; details: 1 μg peptide intranasal daily, vs AF64A-vehicle
Protocol: Rats were subjected to two daily tests in a water maze, including a hidden platform (Morris, R., J. Neurosci. Methods 11:47-60 (1984); Gordon et al., Neurosci. Lett. 199:1-4 (1995); Gozes et al., J Neurobiol. 33:329-342. (1997a)). Every day for the first test, both the platform and the animal were situated in a new location with regards to the pool (with the pool being immobile).
The experiment was performed as follows: the animal was positioned on the platform for 0.5 min., then placed in the water. The time required to reach the platform (indicative of learning and intact reference memory) was measured (first test). […] The time required to reach the platform in the second trial was recorded, indicative of short-term (working) memory. […]
After a week of peptide treatment, the animals were subjected to two daily tests in the water maze (as above). […] To avoid bias related to changes in motor activity in the various treatment groups, a probe trial test that assessed spatial memory was also utilized as follows. After four days of training and testing, the platform was removed and on day 5 the animals were subjected to swimming in the pool (120 sec) without the platform; in these experiments, the time spent in the quadrant of the pool where the platform used to be was recorded. […]

[9] = test system: AF64A-treated rats; test: Probe trial (platform removed, time in platform quadrant) in rats; format: in vivo, rat; details: AF64A-treated rats given peptide intranasally vs AF64A-vehicle, 120 sec swim, p<0.001
Excerpt: After a week of peptide treatment, the animals were subjected to two daily tests in the water maze (as above). During the test-period, animals were also given an intranasal administration of peptide or vehicle (carrier) an hour before the daily tests. To avoid bias related to changes in motor activity in the various treatment groups, a probe trial test that assessed spatial memory was also utilized as follows. After four days of training and testing, the platform was removed and on day 5 the animals were subjected to swimming in the pool (120 sec) without the platform; in these experiments, the time spent in the quadrant of the pool where the platform used to be was recorded. Measurements were performed using the HVS video tracking system (HVS Image Ltd. Hampton, UK).

[10] = storage at temperatures <4° C.; cited from earlier work

Fraction of material intact in the brain, 30 min ([1]; in vivo): at least 12%
Total material eluted from the HPLC column, cortex, 30 min ([1]; in vivo): 807.8 fmole/g tissue
Total material eluted from the HPLC column, cortex, 60 min ([1]; in vivo): 1198.9 fmoles/g tissue
half-life [2]: ~15 min
Compound: CC[C@H](C)[C@H](NC(=O)[C@H](CO)NC(=O)[C@@H](NC(=O)[C@@H]1CCCN1C(=O)[C@H](C)NC(=O)[C@@H](N)CC(N)=O)C(C)C)C(=O)N1CCC[C@H]1C(=O)N[C@@H](CCC(N)=O)C(=O)O [NAP, Asn-Ala-Pro-Val-Ser-Ile-Pro-Gln]
In vivo metabolism by HPLC analysis [1]: metabolized in vivo to multiple fragments
Toxic effects [3]: no toxic effects

Compound: CCCCS(=N)(=O)CCC(N)C(=O)O (stereo not drawn) [buthionine sulfoximine, Buthionine sulfoximine]
Decrease in neuroblastoma cell viability [4]: 70-90%

Compound: D-NAP: NAP (NAPVSIPQ) made of D-amino acids, for oral administration
Latency to find the hidden platform, prenatal oral single peptide 40 μg [5]: trend of faster latencies

Compound: D-SAL: SAL (SALLRSIPA) made of D-amino acids, for oral administration ([dS][dA][dL][dL][dR][dS][dI][dP][dA])
Latency to find the hidden platform, prenatal oral single peptide 40 μg [5]: trend of faster latencies
Latency to find the hidden platform, prenatal oral double dose 80 μg ([5]; gavage on pregnancy day 8, 80 μg): perform similarly to the control animals

Time of highest total radioactivity in the brain (cortex) ([6]; following intranasal administration): 60 min
Radioactivity found (calculated as NAP per g tissue) ([6]; intranasal 22.75 pmole per rat, compared with 91 fmoles/g assumed for homogeneous distribution): 45 fmoles/g tissue
Organ distribution of total radioactivity ([6]; intranasal [3H]-NAP, thirty minutes after administration): highest levels in the intestine
Compound: NAP, propyl 3-3,4-[^3H] [[^3H]-NAP]

Compound: SALLRSIPA [ADNF-9]
Amelioration/prevention of memory deficits in apolipoprotein E-deficient mice [7]: less effective than NAP
Latency to reach the hidden platform, first daily test (reference memory) ([8]; NAP difference on fourth day of testing (p<0.041)): apparent insignificant improvement
Latency to reach the hidden platform, second daily test (short-term memory) ([8]; p<0.001): significant improvements and reduced latencies
Time spent in the quadrant of the pool where the platform was previously positioned (probe trial, day 5) [9]: significantly increased
Biological activity of PBS solutions upon storage [10]: lost biological activity

Reference: patent publication US7427598B2, “Post-natal administration of activity-dependent neurotrophic factor-derived polypeptides for enhancing learning and memory” (The United States of Americas as represented by the …, priority 2001, dated 2008)
